Measured values from PubChem BioAssay (NCI).
Several values for one entry are separate records, joined by “and”; a condition that tells them apart may be missing. Equal entries are not always repeated.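 Compound exposure: 48 hours, 5 concentrations, 96-well plates. Abbreviation: GI50, concentration required for 50% inhibition of growth. TGI: concentration producing complete growth inhibition.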

How the values were obtained:
Assay in all cases: DTP human tumour cell line panel, 48 h
[1] = system: SR leukemia
[2] = system: HOP-92 NSCLC
[3] = system: SF-295 CNS
[4] = system: SF-539 CNS
[5] = system: OVCAR-4 ovarian
[6] = system: A549 NSCLC
[7] = system: RPMI-8226 leukemia
[8] = system: OVCAR-5 ovarian
[9] = system: DLD-1 colon

SMILES | GI50 [1] | TGI [1] | GI50 [2] | TGI [2] | GI50 [3] | TGI [3] | GI50 [4] | TGI [4] | GI50 [5] | TGI [5] | GI50 [6] | TGI [6] | GI50 [7] | TGI [7] | GI50 [8] | TGI [8] | TGI [9]
Clc1cc2c(nn1)Nc1ccccc1S2 | > 100 µM | > 100 µM | > 100 µM | > 100 µM | > 100 µM | > 100 µM | > 100 µM | > 100 µM | > 100 µM | > 100 µM | > 100 µM | > 100 µM | > 100 µM | > 100 µM | > 100 µM | > 100 µM | –
O=c1c2cccc(F)c2sc2c(N3CCNCC3)nc3ccccc3c12 | 1.08 µM | 3.35 µM | 1.11 µM | 2.6 µM | 1.76 µM | 3.33 µM | 1.71 µM | 3.11 µM | 1.64 µM | 3.08 µM | 0.89 µM | 2.71 µM | 1.69 µM | 3.73 µM | 1.59 µM | 3.03 µM | –
COc1ccc(CNC(C)C(=O)O)cc1 (centres undefined) | – | > 100 µM | – | > 100 µM | – | > 100 µM | – | > 100 µM | – | > 100 µM | – | > 100 µM | – | > 100 µM | – | > 100 µM | –
COC1=C(Br)C(O)C2(C=C1Br)CC(C(=O)NCCCCNC(=O)C1=NOC3(C=C(Br)C(OC)=C(Br)C3O)C1)=NO2 (centres undefined) | – | 38.9 µM | – | 94.9 µM | – | 90.5 µM | – | 50.3 µM | – | > 100 µM | – | > 100 µM | – | 50.5 µM | – | > 100 µM | –
Nc1nc2c(nnn2C2OC(CO)C(O)C2O)c(=O)[nH]1 (centres undefined) | 1.16 µM | > 100 µM | 0.505 µM | 68.4 µM | 1.21 µM | > 100 µM | 1.59 µM | > 39.7 µM | 1.59 µM | > 100 µM | 3.01 µM | > 100 µM | 2.76 µM | > 100 µM | 13.3 µM | > 100 µM | –
NC1CCC(Nc2nc(NCc3cc(Cl)ccc3O)c3ncn(C4CCCC4)c3n2)CC1 (centres undefined) | 0.0422 µM | 0.237 µM | 0.163 µM | 0.63 µM | 0.159 µM | 0.542 µM | 0.166 µM | 0.341 µM | 0.183 µM | 0.778 µM | 0.193 µM | 0.713 µM | 0.202 µM | 0.474 µM | 0.242 µM | 1.16 µM | –
CN(C)CCC(CCN(C)C)=NOC(=O)c1ccccc1 | – | – | – | – | – | > 100 µM | – | > 100 µM | – | > 100 µM | – | > 100 µM | – | > 100 µM | – | – | > 100 µM
O=C1C(Nc2ccc(Br)cc2)=C(I)C(=O)c2ncccc21 | 0.314 µM | 2.42 µM | 0.815 µM | 1.61 µM | 7.56 µM | 14.9 µM | 1.03 µM | 2.49 µM | 0.601 µM | 1.24 µM | 2.24 µM | 8.18 µM | 0.836 µM | 2.12 µM | 1.58 µM | 5.71 µM | –
NS(=O)(=O)c1ccc(NCc2cnc3ccccc3n2)cc1 | – | > 100 µM | – | > 100 µM | – | > 100 µM | – | > 100 µM | – | > 100 µM | – | > 100 µM | – | > 100 µM | – | > 100 µM | –
CSc1ccc2c(c1)N(CCC1CCCCN1C)c1ccccc1S2 (centres undefined) | 4.45 µM and 3.41 µM | 17.2 µM and 12.4 µM | 2.11 µM | 8.51 µM | 8.64 µM and 2.86 µM | 22.6 µM and 8.7 µM | 14.1 µM and 5.63 µM | 28.2 µM and 18.2 µM | 7.99 µM and 5.22 µM | 20.3 µM and 16.9 µM | 10.9 µM and 2.65 µM | 24.1 µM and 10.3 µM | 8.8 µM and 2.23 µM | 27.1 µM and 6.05 µM | 10.1 µM and 3.83 µM | 22 µM and 13.2 µM | –
Cc1[nH]c(C(=O)Nc2ccccc2OC2CCNCC2)c(Cl)c1Cl | 1.46 µM | 5.69 µM | 0.702 µM | 1.79 µM | 0.917 µM | 1.68 µM | 0.856 µM | 1.56 µM | 0.901 µM | 1.69 µM | 1.22 µM | 3.35 µM | 1.04 µM | 2.59 µM | 1.28 µM | 4.32 µM | –
COC(=O)C1=Cc2cc(OC)c(OC)cc2[C@H](c2ccc(OC)c(OC)c2)C1C(=O)OC (some centres undefined) | – | > 100 µM | – | > 100 µM | – | > 100 µM | – | > 100 µM | – | > 100 µM | – | > 100 µM | – | > 100 µM | – | > 100 µM | –
C[C@]12CC[C@H]3[C@@H](CCC4=CC(=O)CC[C@@]43C)[C@@H]1CC[C@@H]2C(=O)COS(=O)(=O)c1ccc(Br)cc1 | – | 3.12 µM | – | 18.3 µM | – | 47.3 µM | – | > 60.7 µM | – | > 51.2 µM | – | 44.6 µM | – | 12 µM | – | 35.2 µM | –
CSCC[C@H](NC(=O)[C@H](CC(C)C)NC(=O)[C@@H](Cc1ccccc1)NC(=O)CNC(=O)[C@@H](NC(=O)[C@H](C)NC(=O)[C@H](Cc1c[nH]c2ccccc12)NC(=O)[C@H](CCC(N)=O)NC(=O)[C@H](N)CC(N)=O)C(C)C)C(N)=O | – | 10.7 µM | – | > 12.5 µM | – | > 12.5 µM | – | > 12.5 µM | – | > 12.5 µM | – | > 12.5 µM | – | > 12.5 µM | – | > 12.5 µM | –
CCCC[n+]1c(/C=C\c2c(OC)cc(OC)cc2OC)ccc2ccccc21 | 0.306 µM | 30.3 µM | 0.502 µM | 4.8 µM | 0.802 µM | 3.25 µM | 1.44 µM | 4.65 µM | 1.68 µM | 13.6 µM | 1.18 µM | 10.5 µM | 0.279 µM | 2.73 µM | 2.26 µM | 10.3 µM | –
NC(=S)N/N=C/c1ccc(N)cn1 | – | > 10 µM | – | > 10 µM | – | > 10 µM | – | 2.2 µM | – | > 10 µM | – | > 10 µM | – | > 10 µM | – | > 10 µM | –
CC[C@@H](C(=O)[C@H](C)[C@H](O)[C@@H](C)[C@H]1O[C@H]([C@@H](CC)C(=O)O)CC[C@H]1C)C1O[C@]2(C=C[C@@H](O)[C@]3(CC[C@@](C)([C@H]4CC[C@](O)(CC)[C@H](C)O4)O3)O2)[C@H](C)C[C@@H]1C (some centres undefined) | 0.0827 µM | 5.73 µM | 0.69 µM | 5.78 µM | 0.474 µM | 5.54 µM | 0.328 µM | 4.05 µM | 0.821 µM | 44.8 µM | 0.267 µM | 21.6 µM | 0.171 µM | 3.07 µM | 1.07 µM | 69.2 µM | –
c1cc(CSSCc2ccncc2)ccn1 | – | 30.3 µM | – | > 100 µM | – | > 100 µM | – | 50.2 µM | – | > 100 µM | – | > 100 µM | – | > 65.3 µM | – | > 100 µM | –
